{"source": "paper PMC10056899", "about": "“Neuroprotective and Antiherpetic Properties of Polyphenolic Compounds from Maackia amurensis Heartwood” (Molecules, 2023)", "key": {"HSV-1": {"test_system": "HSV-1", "assay": "Anti-HSV-1 activity, cytopathic effect (CPE) inhibition assay in Vero cells", "assay_type": "cell-based, HSV-1 strain L2", "conditions": "for IC50: read-out: IC50 (CPE assay); for SI = CC50/IC50: Vero cells, HSV-1", "procedure": "The HSV-1 strain L2 and Vero cell culture (kidney epithelial cells of the African green monkey Chlorocebus sp.) were obtained from the N.F. Gamaleya Federal Research Centre for Epidemiology and Microbiology (Moscow, Russia). HSV-1 was grown in Vero cells, using Dulbecco′s Modified Eagle′s Medium (DMEM, Biolot, St. Petersburg, Russia) supplemented with 10% fetal bovine serum (FBS, Biolot, St. Petersburg, Russia) and 100 U/mL of gentamycin (Dalkhimpharm, Khabarovsk, Russia), at 37 °C in a CO2 incubator. In the maintenance medium, the FBS concentration was decreased to 1%.\nThe tested compounds were dissolved in DMSO (Sigma, St. Louis, MO, USA) at a concentration 10 mg/mL and stored at −20 °C. For cytotoxicity and anti-HSV-1 activity determination, the stock solutions were diluted with DMEM so that the final concentration of DMSO was 0.5%.\nThe anti-HSV-1 activity of stilbenes was evaluated using cytopathic effect (CPE) inhibition assay in Vero cells. We infected the monolayer of cells grown in 96-well plates (1 × 10^4 cells/well) with 100 µL/well of virus suspension (100 TCD50/mL) and we simultaneously treated it with stilbenes 1–6 (100 µL/well) at various concentrations (from 1 to 400 μg/mL) for one hour at 37 ◦C. After virus absorption, we removed the mixture of virus and stilbenes, washed the cells, and added the maintenance medium with 1% FBS. […] We used MTT assay to evaluate the antiviral activity of stilbenes. The viral inhibition rate (IR, %) was calculated according to Equation (3):(3) IR, %=Atv−Acv/Acd−Acv×100, where: • Atv is the absorbance of cells infected with virus and treated with a polyphenolic compound; • Acv is the absorbance of the untreated virus-infected cells; • Acd is the absorbance of control (untreated and non-infected) cells.\nThe selectivity index (SI) was calculated as the ratio of CC50 to IC50. Experiments were repeated three times."}, "[1]": {"test_system": "PQ-treated Neuro-2a cells", "assay": "Intracellular ROS level in PQ-treated cells (H2DCF-DA)", "assay_type": "cell-based, murine", "conditions": "10 μM, PQ 1 mM", "procedure": "After 24 h of adhesion, Neuro-2a cells (1 × 10^4 cells/well) were incubated with stilbenes (0.01–10 µM) for 1 h. After that, we added PQ (1 mM) to each well and incubated the cells for 3 h. To study ROS formation, we added 20 µL of 2,7-dichlorodihydrofluorescein diacetate solution ([…], H2DCF-DA, Molecular Probes, Eugene, OR, USA) to each well, so that the concentration was 10 µM, and kept the microplate in a CO2–incubator for additional 30 min at 37 °C."}, "[2]": {"assay": "Ferric reducing antioxidant power (FRAP) assay", "conditions": "4 min, pH 3.6", "procedure": "The FRAP assay was carried out as described in [41]. We prepared FRAP reagent by mixing 2.5 mL of TPTZ (2,4,6-tris(2-pyridyl)-s-triazine) solution (10 mM) in 40 mM HCl and […] of FeCl3 solution (20 mM) in acetate buffer solution (300 mM, pH 3.6). Then, we added stilbenes 1–6 to 3 mL of FRAP reagent at concentrations from 1 to 34 µM. The mixture was kept in the dark at room temperature for 4 min. Then, we measured the absorbance at 595 nm using a Shimadzu UV 1240 spectrophotometer. Equation (2) was used to calculate the FRAP values of stilbenes 1–6:(2) FRAP=CFe/Cx, where: • CFe is the concentration of Fe^2+ (µM) formed in the reaction; • Cx is the concentration of polyphenolic compounds in the reacting mixture.\nThe concentration of Fe^2+ (µM) formed in the reaction was determined using the calibration curve obtained for different concentrations of FeSO4·7H2O."}, "[3]": {"test_system": "PQ-treated Neuro-2a cells", "assay": "Mitochondrial membrane potential in PQ-treated cells (TMRM)", "assay_type": "cell-based, murine", "conditions": "10 μM", "procedure": "[…] Then, we added PQ (500 μM) and kept the cell suspension in a CO2-incubator for 1 h. Cells incubated without PQ and stilbenes and with PQ only were used as positive and negative control, respectively. We added the tetramethylrhodamine methyl (TMRM) (Sigma-Aldrich, St. Louis, MO, USA) solution (500 nM) to each well and kept the cells for 30 min in a CO2-incubator at 37 °C. The intensity of fluorescence was measured with a PHERAstar […] reader (BMG Labtech, Ortenberg, Germany) at λex = 540 nm and λem = 590 nm. We processed the data by MARS Data Analysis v. 3.01R2 (BMG Labtech, Ortenberg, Germany) and presented the results as percentages of the positive control value."}}, "note": "Values joined by “and” are separate entries in the source; they are usually repeats but may differ in a detail not shown here. Equal entries are not always repeated. Where two headings read alike, the source gives them in different places.", "data": [{"smiles": "COc1ccc([C@@H]2COc3cc(O)ccc3[C@H]2c2c(O)cc(O)cc2/C=C/c2ccc(O)c(O)c2)c(O)c1", "note": "[Compound 1]", "values": [{"measurement": "IC50", "setting": "HSV-1; Human alphaherpesvirus 1, Vero", "value": "14 µg/mL and 27.2 µM"}, {"measurement": "SI = CC50/IC50", "setting": "HSV-1", "value": "11.6 ± 1.3"}, {"measurement": "Reduction of intracellular ROS level in PQ-treated cells", "setting": "[1]", "value": 17, "unit": "%"}, {"measurement": "FRAP CFe2+(µM)/Cpolyphenolic compound (µM)", "setting": "[2]", "value": "12.36 ± 1.38 CFe2+(µM)/Cpolyphenolic compound (µM)"}, {"measurement": "FRAP CFe2+(µM)/Cpolyphenolic compound (μkg/mL)", "setting": "[2]", "value": "24.04 ± 2.68 CFe2+(µM)/Cpolyphenolic compound (μkg/mL)"}]}, {"smiles": "Oc1ccc(/C=C/c2cc(O)cc3c2[C@H](c2cc(O)cc(O)c2)[C@@H](c2ccc(O)c(O)c2)O3)cc1", "note": "[Compound 4, scirpusin A]", "values": [{"measurement": "IC50", "setting": "HSV-1; Human alphaherpesvirus 1, added to Vero cells simultaneously with the virus, 100 TCD50/mL", "value": "13.8 µg/mL and 29.4 µM"}, {"measurement": "SI = CC50/IC50", "setting": "HSV-1", "value": "14.4 ± 1.7"}, {"measurement": "Reduction of intracellular ROS level in PQ-treated cells", "setting": "[1]", "value": 7, "unit": "%"}, {"measurement": "Increase of mitochondrial membrane potential compared to PQ-treated cells", "setting": "[3]", "value": 26, "unit": "%"}, {"measurement": "FRAP CFe2+(µM)/Cpolyphenolic compound (µM)", "setting": "[2]", "value": "11.44 ± 1.41 CFe2+(µM)/Cpolyphenolic compound (µM)"}, {"measurement": "FRAP CFe2+(µM)/Cpolyphenolic compound (μkg/mL)", "setting": "[2]", "value": "24.34 ± 3.00 CFe2+(µM)/Cpolyphenolic compound (μkg/mL)"}]}]}
